The text below walks through data of patent US5444071A, “Quinoline derivatives and use thereof as angiotensin II antagonists” (Imperial Chemical Industries PLC, priority 1989, dated 1995).

What is called ED50 is the dose that gives a 50% effect, or the effect in half of the subjects. Low readings indicate greater potency, high ones weaker potency.

In this assay the test system is angiotensin II-induced pressor responses. As to the kind of experiment: Test C: antagonism of angiotensin II-induced pressor responses in rats. It counts as in vivo. The note with it: iv, rat, i.v. administration. From the text:
The antagonism of one or more of the physiological actions of AII and, in particular, the antagonism of the interaction of AII with the receptors which mediate its effects on a target tissue, may be assessed using one or more of the following, routine laboratory procedures: Test C: This in vivo test involves using terminally-anaesthetised or conscious rats in which an arterial catheter has been implanted under anaesthesia for the measurement of changes in blood pressure. The AII antagonistic effects of the test compound following oral or parenteral administration, are assessed against angiotensin II-induced pressor responses. To ensure that the effect is specific, the effect of the test compound on vasopressin-induced pressor responses may also be determined in the same preparation.

In the case of `Cc1cc(OCc2ccc(-c3ccccc3-c3nnn[nH]3)cc2)c2ccccc2n1.Cl` [Example 7, 2-methyl-4-[(2'-(1H-tetrazol-5-yl)biphenyl-4-yl)methoxy]quinoline hydrochloride], the 50% effective dose (ED50) came to 0.5 mg/kg.
